Consider 17 molecules from US9783488B2 (CHDI Foundation, Inc., priority 2013, dated 2017).

One assay deals with human catalytic domain HDAC4 protein (amino acids 648-1032) (Homo sapiens (Human), UniProt P56524). Description: Inhibition of HDAC4 catalytic domain enzymatic activity, fluorogenic substrate Boc-Lys(Tfa)-AMC. The note with it: HDAC4 catalytic domain enzyme, read-out: Biochemical HDAC4 IC50. An excerpt: Analysis of Inhibition of HDAC4 with Class IIa Histone Deacetylase (HDAC) Inhibitors
Chain of human catalytic domain HDAC4 protein (amino acids 648-1032) (P56524 648-1032): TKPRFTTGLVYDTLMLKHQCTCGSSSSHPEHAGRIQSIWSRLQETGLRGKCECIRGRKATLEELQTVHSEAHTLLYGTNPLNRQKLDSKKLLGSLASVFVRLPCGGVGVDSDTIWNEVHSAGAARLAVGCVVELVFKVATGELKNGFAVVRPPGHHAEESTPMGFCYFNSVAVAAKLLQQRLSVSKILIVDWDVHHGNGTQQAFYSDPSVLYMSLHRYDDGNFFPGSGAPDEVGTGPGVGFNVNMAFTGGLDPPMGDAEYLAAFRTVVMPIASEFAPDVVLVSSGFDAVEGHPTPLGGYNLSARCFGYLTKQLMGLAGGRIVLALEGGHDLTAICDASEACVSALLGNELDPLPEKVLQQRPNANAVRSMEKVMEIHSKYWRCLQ
The potency of Class IIa Histone Deacetylase (HDAC) inhibitors is quantified by measuring the Histone Deacetylase 4 (HDAC4) catalytic domain enzymatic activity using the fluorogenic substrate, Boc-Lys(Tfa)-AMC. The substrate is deacetylated to Boc-Lys-AMC by HDAC4. Cleavage by trypsin results in the release of the fluorophore AMC from the deacetylated substrate. The fluorescence of the sample is directly related to the histone deacetylase activity in the sample.
Serially dilute HDAC inhibitor compounds. […] Stocks of 6 μl aliquots of the 10 mM compound in DMSO are prepared and stored at […]. From one stock aliquot of each compound to be tested and the reference compound, a 16-point serial dilution is prepared according to Table 1 using a 125 μl 16-channel Matrix multi-channel pipette (Matrix Technologies Ltd).
2 μl (200×) of each diluted solution and each control (full activity: 100% DMSO alone or full inhibition 1 mM) is stamped into V-bottomed polypropylene 384-well compound plates using either the Bravo (384-well head from Agilent) or 12.5 μl 16-channel Matrix multi-channel pipette (Matrix Technologies Ltd).
Prepare HDAC4 catalytic domain enzyme (0.2 μg/mL).
Prepare 5× ([…]) Boc-Lys(Tfa)-AMC Substrate. 5× (50 μM) substrate is prepared just prior to the addition to the assay. A 1 mM substrate stock is made by diluting a 100 mM Boc-Lys(Tfa)-AMC in DMSO solution 1:100 by adding it drop-wise to assay buffer (equilibrated to r.t.) while vortexing at slow speed to prevent precipitation. The 5× substrate is prepared by diluting the 1 mM substrate solution 1:20 by adding it drop-wise to assay buffer (equilibrated to r.t.) while vortexing at slow speed to prevent precipitation.
Prepare 3× (30 μM) Developer/Stop Solution.
Assay. 5 μl of each solution of 1:20 diluted compound from above is transferred to a clear bottomed, black, 384-well assay plate using the Bravo or the Janus (384-well MDT head from Perkin Elmer). Using a 16-channel Matrix multi-channel pipette, 35 μl of the working solution of HDAC4 catalytic domain enzyme (0.2 μg/mL in assay buffer) is transferred to the assay plate. […] The assay plate is then shaken for two minutes on an orbital shaker at 900 rpm (rotations per minute). Next the plate is incubated for 15 minutes at 37° C. The reaction is stopped by adding 25 μl of 3× (3 μM) developer/stop solution to the assay plates using either the Bravo, Janus or a 16-channel Matrix multi-channel pipette. Assay plates are then shaken for 5 minutes on an orbital shaker at 1200 rpm. Next, the assay plates are incubated at 37° C. for 1 hour in a tissue culture incubator.
For `Cc1c(F)cccc1C1(C(=O)NO)CCC2(CCOCC2)C1` (racemic) [Example 105, (±)-2-(3-fluoro-2-methylphenyl)-N-hydroxy-8-oxaspiro[4.5]decane-2-carboxamide], the half-maximal inhibitory concentration (IC50) – broadly, the concentration at which inhibition is half-maximal – was 1400 nM. Consider `Cc1c(F)cccc1[C@]1(C(=O)NO)CC[C@@H](c2cncnc2)C1` (relative stereo) [Example 2, (±)-(1S*,3R*)-1-(3-fluoro-2-methylphenyl)-N-hydroxy-3-(pyrimidin-5-yl)cyclopentanecarboxamide], for which the IC50 came to 290 nM.

The test system of another assay is cellular histone deacetylase enzymatic activity in Jurkat E6-1 cells. Description: Inhibition of cellular HDAC activity in Jurkat E6-1 cells, fluorogenic substrate Boc-Lys(Tfa)-AMC. In kind it is cell-based. To be noted: Homo sapiens, read-out: Cell IC50. An excerpt: Analysis of Inhibition of Cellular HDAC Activity with Class IIa Histone Deacetylase (HDAC) Inhibitors
The potency of Class IIa Histone Deacetylase (HDAC) inhibitors is quantified by measuring the cellular histone deacetylase enzymatic activity using the fluorogenic substrate, Boc-Lys(Tfa)-AMC. After penetration in Jurkat E6-1 cells, the substrate is deacetylated to Boc-Lys-AMC. After cell lysis and cleavage by trypsin, the fluorophore AMC is released from the deacetylated substrate only. The fluorescence of the sample is directly related to the histone deacetylase activity in the sample.
Jurkat E6.1 cell culture and plating. Jurkat E6.1 cells are cultured according to standard cell culture protocols in Jurkat E6.1 Growth Media (RPMI without phenol red, 10% FBS, 1 mM HEPES, and 1 mM Sodium Pyruvate). Jurkat E6.1 cells are counted using a Coulter Counter and resuspended in Jurkat E6.1 growth media at a concentration of 75,000 cells/35 μl. 35 μl or 75,000 cells is seeded into Greiner microtitre assay plates. The plates are then incubated at 37° C. and 5% CO2 while other assay components are being prepared.
Serially dilute HDAC inhibitor compounds. Serial dilutions of the HDAC inhibitors and control reference compound (1-(5-(3-((4-(1,3,4-oxadiazol-2-yl)phenoxy)methyl)-1,2,4-oxadiazol-5-yl)thiophen-2-yl)-2,2,2-trifluoroethanone) are made by first resuspending the lyophilized compound to a final concentration of 10 mM in […]. Stocks of 70 μl aliquots of the 10 mM compound in DMSO are prepared and stored at −20° C. From one stock aliquot of each compound to be tested and the reference compound, a 16-point serial dilution is prepared according to Table 1 using a 125 μl 16-channel Matrix multi-channel pipette.
2 μl (200×) of each diluted solution and each control (full activity: 100% DMSO alone or full inhibition 1 mM) is stamped into V-bottom polypropylene 384-well compound plates using either the Bravo, Janus, or 12.5 μl 16-channel Matrix multi-channel pipette. Each well with the 200× compound solution is diluted 1:20 by the addition of 38 μl Jurkat assay buffer+DMSO (9.5% DMSO, RPMI without phenol red, 0.09% FBS, 9 mM Hepes, and 0.9 mM Sodium Pyruvate equilibrated to r.t.)
Prepare 5× (500 μM) Boc-Lys(Tfa)-AMC substrate. 5× (500 μM) substrate is prepared just prior to the addition to the assay. The 5× substrate is prepared by diluting a 100 mM Boc-Lys(Tfa)-AMC in DMSO solution 1:200 by adding it drop-wise to Jurkat assay medium (RPMI without phenol red, 0.1% FBS, 10 mM Hepes, and 1 mM Sodium Pyruvate equilibrated to 37° C.) while vortexing at slow speed to prevent precipitation.
Prepare 3× Lysis Buffer. 10 mL of 3× lysis buffer is prepared with 8.8 mL of 3× stock lysis buffer (50 mM Tris-HCl, pH 8.0, 137 mM NaCl, 2.7 mM KCl, 1 mM MgCl2, 1% Nonidet P40 Substitute equilibrated to r.t.) and 1.2 mL of 3 mg/mL Trypsin equilibrated to r.t.
Assay. 5 μl of each solution of 1:20 diluted compound from above is transferred to the Greiner microtitre assay plates with 75,000 cells/well using the Bravo. Cells are then incubated for 2 hours at 37° C. and 5% CO2. The assay is then started by adding 10 μl of 5× (500 μM) substrate to the assay plate using either the Bravo or 16-channel Matrix multi-channel pipette. The cells are then incubated for 3 hours at 37° C. and 5% CO2. Next, 25 μl of 3× lysis buffer is added to each well using either the 125 μl 16 channel pipette or the Bravo. The assay plate is then incubated overnight (15-16 hours) at 37° C. and 5% CO2. The following day, the plates are shaken on an orbital shaker for 1 minute at 900 rpm. Finally the top read fluorescence (Excitation: 355 nm, Emission: 460 nm) is measured using PerkinElmer EnVision.
For `Cc1c(F)cccc1C1(C(=O)NO)CCC2(CCOCC2)C1` (racemic) [Example 105, (±)-2-(3-fluoro-2-methylphenyl)-N-hydroxy-8-oxaspiro[4.5]decane-2-carboxamide], the IC50 is 12000 nM. On the same count and under the same terms, for `Cc1c(F)cccc1[C@]1(C(=O)NO)CC[C@@H](c2cncnc2)C1` (relative stereo) [Example 2, (±)-(1S*,3R*)-1-(3-fluoro-2-methylphenyl)-N-hydroxy-3-(pyrimidin-5-yl)cyclopentanecarboxamide] the value was 1910 nM; for `Cc1ccccc1[C@H]1CC[C@@](C(=O)NO)(c2cccc(F)c2C)C1` (relative stereo) [Example 8, (±)-(1S*,3S*)1-(3-fluoro-2-methylphenyl)-N-hydroxy-3-(o-tolyl)cyclopentane carboxamide], 480 nM; for `Cc1c(F)cccc1[C@]1(C(=O)NO)CC[C@@H](c2cnn(CCN3CCOCC3)c2)C1` (relative stereo) [Example 47, (1S,3R*)-1-(3-fluoro-2-methylphenyl)-N-hydroxy-3-(1-(2-morpholinoethyl)-1H-pyrazol-4-yl)cyclopentanecarboxamide], 830 nM. Take `CCN(CC)CCn1cc([C@@H]2CC[C@@](C(=O)NO)(c3cccc(F)c3C)C2)cn1` (relative stereo) [Example 51, (1S,3R*)-3-(1-(2-(diethylamino)ethyl)-1H-pyrazol-4-yl)-1-(3-fluoro-2-methylphenyl)-N-hydroxycyclopentanecarboxamide]: the IC50 was 290 nM. Take `CCCN(CCC)C[C@@H](C)NC(=O)c1ccc([C@@H]2CC[C@@](C(=O)NO)(c3cccc(F)c3C)C2)cc1` (relative stereo) [Example 52, N—((R)-1-(dipropylamino)propan-2-yl)-4-((1R*,3S)-3-(3-fluoro-2-methylphenyl)-3-(hydroxycarbamoyl)cyclopentyl)benzamide]: the IC50 turned out to be 180 nM. Take `CCCN(CCC)C[C@@H](C)NC(=O)c1ccc([C@H]2CC[C@@](C(=O)NO)(c3cccc(F)c3C)C2)cc1` (relative stereo) [Example 53, N—((R)-1-(dipropylamino)propan-2-yl)-4-((1S*,3S)-3-(3-fluoro-2-methylphenyl)-3-(hydroxycarbamoyl)cyclopentyl)benzamide]: the IC50 was 150 nM. With `Cc1c(F)cccc1[C@]1(C(=O)NO)CC[C@@H](c2ccc3c(c2)CN(C2CC2)C3=O)C1` (relative stereo) [Example 59, (1S,3R*)-3-(2-cyclopropyl-1-oxoisoindolin-5-yl)-1-(3-fluoro-2-methylphenyl)-N-hydroxycyclopentanecarboxamide], the IC50 was determined as 190 nM. Take `Cc1c(F)cccc1[C@]1(C(=O)NO)CC[C@H](c2ccc3sc(C4CC4)nc3c2)C1` (relative stereo) [Example 79, (1S,3S*)-3-(2-Cyclopropylbenzo[d]thiazol-5-yl)-1-(3-fluoro-2-methylphenyl)-N-hydroxycyclopentanecarboxamide]: the concentration for half-maximal inhibition (IC50) was 380 nM. As to `Cc1c(F)cccc1[C@]1(C(=O)NO)CC[C@@H](c2ccc3sc(C4CC4)nc3c2)C1` (relative stereo) [Example 80, (1 S,3R*)-3-(2-Cyclopropylbenzo[c]thiazol-5-yl)-1-(3-fluoro-2-methylphenyl)-N-hydroxycyclopentanecarboxamide], the IC50 came to 380 nM. In the case of `Cc1c([C@]2(C(=O)NO)CC[C@@H](c3ccc4cnn(C)c4c3)C2)ccc(F)c1F` (relative stereo) [Example 86, (1S,3R*)-1-(3,4-difluoro-2-methylphenyl)-N-hydroxy-3-(1-methyl-1H-indazol-6-yl)cyclopentanecarboxamide], the IC50 stood at 160 nM.

Turning to `Cc1c(F)cccc1[C@]1(C(=O)NO)CC[C@@H](N2CCCC2)C1` (relative stereo) [Example 87, (1 S,3R*)-1-(3-fluoro-2-methylphenyl)-N-hydroxy-3-(pyrrolidin-1-yl)cyclopentanecarboxamide], the IC50 is greater than 50000 nM.

As to `Cc1c(F)cccc1[C@]1(C(=O)NO)CC[C@H](N2CCCC2)C1` (relative stereo) [Example 88, (1 S,3S*)-1-(3-fluoro-2-methylphenyl)-N-hydroxy-3-(pyrrolidin-1-yl)cyclopentanecarboxamide], the half-inhibitory concentration (IC50) is greater than 50000 nM. As for `Cc1c(F)cccc1[C@@]1(C(=O)NO)CC[C@H](c2ccccc2)C1` (stereo in doubt) [Example 4, (1R*,3S*)-1-(3-fluoro-2-methylphenyl)-N-hydroxy-3-phenylcyclopentanecarboxamide], the IC50 came out at 440 nM. For the molecule `Cc1c(F)cccc1[C@]1(C(=O)NO)CC[C@@H](c2ccccc2)C1` (stereo in doubt) [Example 5, (1S*,3R*)-1-(3-fluoro-2-methylphenyl)-N-hydroxy-3-phenylcyclopentanecarboxamide], the IC50 was 7850 nM. On the same count and under the same terms, the value for `Cc1c(F)cccc1[C@]1(C(=O)NO)CC[C@H](c2ccccc2)C1` (stereo in doubt) [Example 6, (1S*,3S*)-1-(3-fluoro-2-methylphenyl)-N-hydroxy-3-phenylcyclopentanecarboxamide] was 610 nM; that for `Cc1c(F)cccc1[C@@]1(C(=O)NO)CC[C@@H](c2ccccc2)C1` (stereo in doubt) [Example 7, (1R*,3R*)-1-(3-fluoro-2-methylphenyl)-N-hydroxy-3-phenylcyclopentanecarboxamide] was 1120 nM.
